We go through ten compounds from publication PMC12071598, “Piperazine-Substituted Pyranopyridines Exhibit Antiproliferative Activity and Act as Inhibitors of HBV Virion Production” (International Journal of Molecular Sciences, 2025).

In data set [1] the test system is DU145. The note with it: discussed for DU145; cited from earlier work.
A further data set relates to hepatitis B virus (HBV). Briefly: microbe, parasite or virus in culture. The class given is cell-based. The note with it: for log reduction at 1 µM / log reduction at 10 µM: Hepatitis B virus, 144 h; for Extracellular HBV DNA (Δlog10): 1 µM, 6 days treatment, conditioned medium (virion production).
The next data set has as its system HeLa. Description: Antiproliferative activity, MTT assay, HeLa. The class given is cell-based. The note with it: Homo sapiens, HeLa cervix carcinoma, 72 h.
A further data set concerns K562. Briefly: Antiproliferative activity, MTT assay, K562. The class given is cell-based. The settings on record: Homo sapiens, K562 chronic myeloid leukemia, 72 h.
The next data set deals with SH-SY5Y. Briefly: Antiproliferative activity, crystal violet staining, SH-SY5Y. The note with it: Homo sapiens, SH-SY5Y neuroblastoma, 72 h. The class given is cell-based.
In a further data set the test system is A549. Description: Antiproliferative activity, MTT assay, A549. The class given is cell-based. The note with it: Homo sapiens, A549 lung carcinoma, 72 h.
The test system of data set [2] is DU145. Briefly: Antiproliferative activity, MTT assay, DU145. The class given is cell-based. The note with it: Homo sapiens, DU-145, DU145 prostate carcinoma, 72 h.
Another data set has as its system HepaRG. Briefly: Cytotoxicity towards non-tumor differentiated HepaRG cells, MTT. The class given is cell-based, human. The note with it: concentration decreasing number of viable cells by 50%; for IC50: Homo sapiens.
Data set [3] can be described thus: Cytotoxicity by MTS assay in MDCK cells. The class given is cell-based. The note with it: dog, read-out: Influenza A Virus CC50. The procedure:
Production of influenza A virus (H1N1) stock and its infection of MDCK cells, as well as infection of Vero E6 cells with SARS-CoV-2, were described previously. Cytotoxicity of the compounds towards MDCK and VeroE6 cells was assessed by seeding 18,000 cells/well of […] plates in 0.1 mL DMEM, treating with the compounds for 66 h, and measuring cell viability by MTS assay. As positive controls, oseltamivir and N-hydroxicytidine were used (obtained from Sigma).
The compounds were added at non-toxic concentrations in serum-free DMEM to the respective cells; one hour later, the serial 10-fold dilutions of influenza virus or SARS-CoV-2 were added in serum-free medium, and antiviral activity was determined by the reduction in the infectious titer of the virus by cytopathic action (CPE). Calculation of 50% cytotoxic concentration (CC50) and 50% effective concentration (IC50) was performed by standard methods using Microsoft Excel 5.0 and GraphPad Prism 8 (GraphPad Software Inc., Boston, MA, USA).

The test system of the next data set is SARS-CoV-2. Description: microbe, parasite or virus in culture. The class given is cell-based.
The next data set has as its system PV1. Description: microbe, parasite or virus in culture. The class given is cell-based, poliovirus type 1. The settings on record: Enterovirus C, 48 h, read-out: PV1 IC50, µM.
The test system of a further data set is NDV. Briefly: microbe, parasite or virus in culture. The class given is cell-based, Newcastle disease virus. The settings on record: avian paramyxovirus 1, 48 h, read-out: NDV IC50, µM.
In the next data set the test system is HSV-1. Description: microbe, parasite or virus in culture. The class given is cell-based, herpes simplex virus type 1. The settings on record: Human alphaherpesvirus 1, 48 h, read-out: HSV-1 IC50, µM.
A further data set has as its system VV. Briefly: microbe, parasite or virus in culture. The class given is cell-based. The note with it: Orthopoxvirus vaccinia, 48 h, read-out: VV IC50, µM.
The subject of the next data set is Influenza A virus. Briefly: microbe, parasite or virus in culture. The class given is cell-based, influenza A virus (H1N1).
The next data set has as its system A549 cells. Description: Intracellular ROS assay, DCFH2-DA in A549 cells. The class given is cell-based. The settings on record: A549, 10 µM, 72 h. An excerpt: As cell death is often triggered by increased production of reactive oxygen species (ROS), the next step was to evaluate if our compounds act as pro-oxidants. ROS production was accessed using cell-permeable redox sensitive DCFH2-DA dye. […] As one of the main sites of ROS production is mitochondria, we also evaluated their membrane potential during treatment with either DO11-46 or DO11-48. […] Lysosome activation often accompany late stages of apoptosis, which is in good accordance with our data on the induction of caspase3/7 activity.
Pro-oxidant activity of the compounds was studied by quantification of ROS production using a cell-permeable fluorogenic probe 2′,7′-dichlorodihydrofluorescein diacetate (DCFH2-DA). A549 cells were seeded on a 48-well plate at a density of 10,000 cells/well. Twenty-four hours later, the compounds were added to 10 µM concentration in quadruplicate, and the cells were kept for 72 h. As a positive control, A549 cells were treated with 1 mM H2O2 for 2 h prior analysis. Then, media were replaced with the fresh FBS-lacking DMEM supplemented with 25 µM DCFH2-DA. After 45 min incubation, the cells were washed 10 times with 500 µL PBS, resuspended in 200 µL PBS and transferred to a black 96-well plate. The fluorescence intensities (FLIs) were measured using CHAMELEON V microplate reader with excitation at 485 nm and emission at 535 nm.

Setting [4] is: read-out: Extracellular HBV DNA (Δlog10).
Setting [5] is: read-out: Intracellular Total HBV RNA (Δlog10).
Setting [6] is: Severe acute respiratory syndrome coronavirus 2, Vero C1008, read-out: SARS-CoV-2 IC50, µM.

Where two headings read alike, the source gives them in different places. Where only a bound is given, the exact number is not on record here.

Turning to `Fc1ccc(C(c2ccc(F)cc2)N2CCNCC2)cc1` [1-bis(4-fluorophenyl)methylpiperazine], in the data set with DU145 [1], the GI50 was 1.8 µM.
Consider `Nc1ccn([C@@H]2CS[C@H](CO)O2)c(=O)n1` [3TC, Lamivudine, reference compound], for which the log reduction at 1 µM was 0.93 with hepatitis B virus (HBV) (setting [4]) and < 0.5 with hepatitis B virus (HBV) (setting [5]). The log reduction at 10 µM with hepatitis B virus (HBV) (setting [4]) is 1.04; with hepatitis B virus (HBV) (setting [5]) it was < 0.5.
Take `O=c1[nH]cc(F)c(=O)[nH]1` [5-Fluorouracil, reference compound]: the IC50 with HeLa stood at 1.2 ± 0.3 µM; in the data set with K562, 1.3 ± 0.3 µM; with SH-SY5Y it was 1.5 ± 0.2 µM.
For the compound `CC1(C)Cc2c(C#N)c(SCC(N)=O)nc(N3CCNCC3)c2CO1` [DO11-37, 2-[(5-Cyano-3,3-dimethyl-8-piperazin-1-yl-3,4-dihydro-1H-pyrano[3,4-c]pyridin-6-yl)thio]acetamide], the IC50 with A549 was determined as 294 ± 35.9 µM; in the data set with HeLa it was 133 ± 38 µM; in the data set with DU145 [2], 225 ± 52.4 µM; in the data set with K562, 91.4 ± 29.6 µM; in the data set on SH-SY5Y, 99.4 ± 21.4 µM; in the data set with HepaRG it was 968 ± 87.8 µM. The IC50 in the data set on SARS-CoV-2 (setting [6]) is > 200 µM; in the data set with PV1, > 300 µM; in the data set with NDV it was > 300 µM; in the data set with HSV-1, > 300 µM; in the data set on VV, > 300 µM. Also, the “IC50 (µM) HepaRG” value in the data set with HepaRG is listed as “almost non-toxic”. Besides, the CC50 at 66 h in [3] was found to be 1680 µM. The “Extracellular HBV DNA (Δlog10)” value in the data set on hepatitis B virus (HBV) is recorded as “significantly reduced levels of virion production”. Further, the log reduction at 1 µM in the data set on hepatitis B virus (HBV) (setting [4]) is 1.97 ± 0.03; with hepatitis B virus (HBV) (setting [5]), < 0.5. Also, the log reduction at 10 µM in the data set with hepatitis B virus (HBV) (setting [4]) was 2.32 ± 0.16; in the data set on hepatitis B virus (HBV) (setting [5]), < 0.5.
Turning to `CC1(C)Cc2c(C#N)c(SCc3ccccc3Cl)nc(N3CCNCC3)c2CO1` [DO11-42, 6-[(2-Chlorobenzyl)thio]-3,3-dimethyl-8-piperazin-1-yl-3,4-dihydro-1H-pyrano[3,4-c]pyridine-5-carbonitrile], the IC50 with A549 was found to be 7 ± 1.9 µM; in the data set on HeLa, 1.9 ± 0.3 µM; in the data set on DU145 [2] it was 1.3 ± 0.2 µM; in the data set on K562 it was 1.5 ± 0.8 µM; in the data set on SH-SY5Y, 4.5 ± 1.8 µM; in the data set on HepaRG, 24.5 ± 2.8 µM. In addition, the IC50 in the data set with SARS-CoV-2 (setting [6]) is > 15 µM; in the data set on PV1 it was > 7.5 µM; in the data set on NDV it was > 7.5 µM; in the data set with HSV-1, > 7.5 µM; with VV, > 7.5 µM. In the data set on Influenza A virus, the “Influenza A Virus Δlgmax” value was found to be 0.5. Also, the CC50 at 66 h in data set [3] turned out to be 440 µM. In the data set on SARS-CoV-2, the “SARS-CoV-2 Δlgmax” value worked out at 0. Moreover, in the data set on hepatitis B virus (HBV), the “Extracellular HBV DNA (Δlog10)” value was “significantly reduced levels of virion production”. Also, the log reduction at 1 µM in the data set with hepatitis B virus (HBV) (setting [4]) is 2.52 ± 0.36; in the data set on hepatitis B virus (HBV) (setting [5]), < 0.5. Also, the figures for the log reduction at 10 µM in the data set on hepatitis B virus (HBV) (setting [4]) and with hepatitis B virus (HBV) (setting [5]) were 2.31 ± 0.29 and 0.53 ± 0.31, respectively. For the same compound, the ROS generation result in the data set with A549 cells is “significantly increased ROS generation”.
Take `CC(=O)c1ccc(NC(=O)CSc2nc(N3CCNCC3)c3c(c2C#N)CC(C)(C)OC3)cc1` [DO11-50, N-(4-acetylphenyl)-2-[(5-cyano-3,3-dimethyl-8-piperazin-1-yl-3,4-dihydro-1H-pyrano[3,4-c]pyridin-6-yl)thio]acetamide]: the IC50 in the data set on A549 was 45.8 ± 12.6 µM; in the data set with HeLa, 74.5 ± 3.5 µM; in the data set with DU145 [2], 26.7 ± 8.4 µM; with K562, 45.6 ± 20 µM; with SH-SY5Y, 13.2 ± 4.3 µM; with HepaRG it was 42.4 ± 8.3 µM. In addition, the IC50 is > 15 µM with SARS-CoV-2 (setting [6]); > 5 µM in the data set with PV1; > 5 µM with NDV; > 5 µM in the data set with HSV-1; > 5 µM in the data set with VV. The “Influenza A Virus Δlgmax” value in the data set with Influenza A virus amounted to 0. For the same compound, the CC50 at 66 h in data set [3] is 1270 µM. In addition, the “SARS-CoV-2 Δlgmax” value in the data set with SARS-CoV-2 is reported as 0. The log reduction at 1 µM in the data set with hepatitis B virus (HBV) (setting [4]) and in the data set on hepatitis B virus (HBV) (setting [5]) was < 0.5 each time. The log reduction at 10 µM with hepatitis B virus (HBV) (setting [4]) and in the data set with hepatitis B virus (HBV) (setting [5]) was < 0.5 each time.
In the case of `O=c1nc(NO)ccn1[C@@H]1O[C@H](CO)[C@@H](O)[C@H]1O` [N-HydroxyC, N-hydroxicytidine, reference compound], the “SARS-CoV-2 Δlgmax” value with SARS-CoV-2 worked out at 5.0. Also, in the data set with SARS-CoV-2 (read-out: SARS-CoV-2 IC50), the half-maximal inhibitory concentration (IC50) turned out to be 0.5 µM.
Regarding `CCOC(=O)C1=C[C@@H](OC(CC)CC)[C@H](NC(C)=O)[C@@H](N)C1` [Oseltamivir, reference compound], the “Influenza A Virus Δlgmax” value in the data set on Influenza A virus is on record as 6.0. In addition, in the data set on Influenza A virus (Influenza A virus, MDCK, read-out: Influenza A Virus IC50, µM), the IC50 was found to be 0.02 µM. For the same compound, in [3], the CC50 at 66 h is > 10 µM.
In the case of `CNC(=O)c1cc(Oc2ccc(NC(=O)Nc3ccc(Cl)c(C(F)(F)F)c3)cc2)ccn1` [Sorafenib, reference compound], the IC50 in the data set with SH-SY5Y is 40 ± 10 µM; in the data set with HepaRG, > 100 µM.
For the compound `FC(F)(F)c1ccc(CN2CCNCC2)cc1` [[4-(trifluoromethyl)benzyl]piperazine], the GI50 in the data set with DU145 [1] is 1.6 µM.
